Numbered stars: 1 amine (or outer) side, 2 acyl side, 3 side chain; on linkers, the order of the positions; unused ones are H or OH. Bridge positions count the residues as written; N and C are the ends. Square brackets hold non-standard residues; d marks the D form. Peptide text beside a SMILES is read from it. * marks the point of attachment. hPhe(3,5-F2-4-CF3) = N[C@@H](CCc1cc(F)c(C(F)(F)F)c(F)c1)C(=O)O; hPhe(3-Cl-4-CF3) = N[C@@H](CCc1ccc(C(F)(F)F)c(Cl)c1)C(=O)O; hPhe(3-F,4-CF3) = N[C@@H](CCc1ccc(C(F)(F)F)c(F)c1)C(=O)O; NMePhe(4-CF3) = CN[C@@H](Cc1ccc(C(F)(F)F)cc1)C(=O)O; NMeAbu(4,4,4-F3) = CN[C@@H](CC(F)(F)F)C(=O)O; NMePhe(4-Me) = CN[C@@H](Cc1ccc(C)cc1)C(=O)O; NMedβ3hAla = C[C@H](CC(=O)[*:2])N(C)[*:1]; NMeGly(cPent) = CN[C@H](C(=O)O)C1CCCC1; Phe(2-OMe) = COc1ccccc1C[C@H](N)C(=O)O; Phe(3-I) = N[C@@H](Cc1cccc(I)c1)C(=O)O; NMeCha = CN[C@@H](CC1CCCCC1)C(=O)O; NMeChg = CN[C@H](C(=O)O)C1CCCCC1; NMeI = CC[C@H](C)[C@H](NC)C(=O)O; NMeD = CN[C@@H](CC(=O)O)C(=O)O; NMeL = CN[C@@H](CC(C)C)C(=O)O; NMeS = CN[C@@H](CO)C(=O)O; hSer = N[C@@H](CCO)C(=O)O; Morpholide = C1CN(*)CCO1; NMeA = CN[C@@H](C)C(=O)O; NMeAib = CNC(C)(C)C(=O)O; Piperidide = C1CCN(*)CC1; Pyrrolidide = C1CCN(*)C1; Ac5c = NC1(C(=O)O)CCCC1; Aze = O=C(O)[C@@H]1CCN1; Sar = CNCC(=O)O; Propyl = CCC*
test system: Human pancreatic cancer cell line AsPC-1 (G12D mutation Kras); assay: AsPC-1 cell growth inhibition (AsPC-1 CGI); assay type: cell-based; conditions: read-out: AsPC-1 cell growth inhibition, 50% growth inhibitory concentration (IC50 value); 96 hours, CellTiter-Glo, values classified in ranges
Protocol: Test compounds were serially dilated with dimethyl sulfoxide, and 200 nL was then dispensed to a U-bottom 96-well plate using Labcyte Echo. […] The cell suspension was dispensed to a. plate containing a test compound at 100 μL per well and incubated at 37° C. in a 5% carbon dioxide gas incubator. 96 hours later, 80 μL of CellTiter-Glo (Promega) was added to each well and fluorescence was measured.

Row | SMILES | IC50 [nM]
1 | COCC[C@@H]1NC(=O)[C@H](CC(C)C)N(C)C(=O)C[C@@H](C(=O)N2CCCCC2)N(C)C(=O)[C@H](C2CCCCC2)N(C)C(=O)C2(CCCC2)NC(=O)[C@@H]2CCCN2C(=O)[C@H](CCc2ccc(C(F)(F)F)c(Cl)c2)NC(=O)CN(C)C(=O)[C@H](CC2CCCCC2)N(C)C(=O)CN(C)C(=O)CN(C)C1=O [Compound 941] ([NMeL][hSer](Me)[Sar][Sar][NMeCha][Sar][hPhe(3-Cl-4-CF3)]P[Ac5c][NMeChg][NMeD]-Piperidide; lactam N-11) | > 500
2 | CC[C@H](C)[C@@H]1NC(=O)[C@H](CC(C)C)N(C)C(=O)C[C@@H](C)N(C)C(=O)[C@H]([C@@H](C)CC)N(C)C(=O)C2(CCCC2)NC(=O)[C@@H]2CCCN2C(=O)[C@H](CCc2ccc(C(F)(F)F)c(Cl)c2)NC(=O)CN(C)C(=O)[C@H](Cc2ccc(C)cc2)N(C)C(=O)CN(C)C(=O)CN(C)C1=O [Compound 1792] (cyclo([Ac5c][NMeI][NMedβ3hAla][NMeL]I[Sar][Sar][NMePhe(4-Me)][Sar][hPhe(3-Cl-4-CF3)]P)) | ≤ 20
3 | CC[C@H](C)[C@@H]1NC(=O)[C@H](CC(F)(F)F)N(C)C(=O)C[C@@H](C(=O)N2CCCC2)N(C)C(=O)[C@H](C2CCCCC2)N(C)C(=O)C2(CCCC2)NC(=O)[C@@H]2CCCN2C(=O)[C@H](CCc2cc(F)c(C(F)(F)F)c(F)c2)NC(=O)CN(C)C(=O)[C@H](Cc2ccc(C(F)(F)F)cc2)N(C)C(=O)CN(C)C(=O)CN(C)C1=O [Compound 1244] ([NMeAbu(4,4,4-F3)]I[Sar][Sar][NMePhe(4-CF3)][Sar][hPhe(3,5-F2-4-CF3)]P[Ac5c][NMeChg][NMeD]-Pyrrolidide; lactam N-11) | ≤ 20
4 | CC[C@H](C)[C@@H]1NC(=O)[C@H](CC(C)C)N(C)C(=O)C[C@@H](C(=O)N(C)C)N(C)C(=O)[C@H](C2CCCC2)N(C)C(=O)[C@H](C)NC(=O)[C@@H](C)NC(=O)[C@H](CCc2ccc(C(F)(F)F)c(Cl)c2)NC(=O)CN(C)C(=O)[C@H](CC2CCCCC2)N(C)C(=O)[C@@H]2CCN2C(=O)[C@H](C)N(C)C1=O [Compound 736] ([NMeL]I[NMeA][Aze][NMeCha][Sar][hPhe(3-Cl-4-CF3)][dA]A[NMeGly(cPent)][NMeD]-NMe2; lactam N-11) | > 500
5 | CC[C@H](C)[C@@H]1NC(=O)[C@H](CC(C)C)N(C)C(=O)C[C@@H](C(=O)N2CCCCC2)N(C)C(=O)[C@H](CC2CCCCC2)N(C)C(=O)C2(CCCC2)NC(=O)[C@@H]2CCCN2C(=O)[C@H](CCc2ccc(C(F)(F)F)c(Cl)c2)NC(=O)CN(C)C(=O)[C@H](CC2CCCCC2)N(C)C(=O)CN(C)C(=O)CN(C)C1=O [Compound 577] ([NMeL]I[Sar][Sar][NMeCha][Sar][hPhe(3-Cl-4-CF3)]P[Ac5c][NMeCha][NMeD]-Piperidide; lactam N-11) | > 500
6 | CC[C@H](C)[C@@H]1NC(=O)[C@H](CC(C)C)N(C)C(=O)C[C@@H](C(=O)N2CCCCC2)N(C)C(=O)[C@H](CC(C)C)NC(=O)C(C)(C)N(C)C(=O)[C@H](Cc2ccccc2OC)NC(=O)[C@H](Cc2cccc(I)c2)NC(=O)CN(C)C(=O)[C@H](Cc2ccc(C)cc2)N(C)C(=O)[C@@H]2CCN2C(=O)CN(C)C1=O [Compound 459] ([NMeL]I[Sar][Aze][NMePhe(4-Me)][Sar][Phe(3-I)][Phe(2-OMe)][NMeAib]L[NMeD]-Piperidide; lactam N-11) | > 500
7 | CC[C@H](C)[C@@H]1NC(=O)[C@H](CC(C)C)N(C)C(=O)C[C@@H](C(=O)N(C)C)N(C)C(=O)[C@H](C2CCCC2)N(C)C(=O)C2(CCCC2)NC(=O)[C@@H]2CCCN2C(=O)[C@H](CCc2ccc(C(F)(F)F)c(Cl)c2)NC(=O)CN(C)C(=O)[C@H](Cc2ccc(C)cc2)N(C)C(=O)[C@@H]2CCN2C(=O)[C@H](C)N(C)C1=O [Compound 1756] ([NMeL]I[NMeA][Aze][NMePhe(4-Me)][Sar][hPhe(3-Cl-4-CF3)]P[Ac5c][NMeGly(cPent)][NMeD]-NMe2; lactam N-11) | ≤ 20
8 | CCCOC[C@H]1C(=O)N(C)CC(=O)N[C@@H](CCc2ccc(C(F)(F)F)c(F)c2)C(=O)N2CCC[C@H]2C(=O)NC2(CCCC2)C(=O)N(C)[C@@H](C2CCCC2)C(=O)N(C)[C@H](C(=O)N2CCOCC2)CC(=O)N(C)[C@@H](CC(C)C)C(=O)N[C@@H]([C@@H](C)CC)C(=O)N(C)[C@@H](C)C(=O)N2CC[C@H]2C(=O)N1C [Compound 9] ([NMeL]I[NMeA][Aze][NMeS](Propyl)[Sar][hPhe(3-F,4-CF3)]P[Ac5c][NMeGly(cPent)][NMeD]-Morpholide; lactam N-11) | ≤ 20
9 | CC[C@H](C)[C@@H]1NC(=O)[C@H](CC(C)C)N(C)C(=O)C[C@@H](C)N(C)C(=O)[C@H](CC(C)C)NC(=O)C(C)(C)N(C)C(=O)[C@H](CC(C)C)NC(=O)[C@H](CCc2ccc(C(F)(F)F)c(Cl)c2)NC(=O)CN(C)C(=O)[C@H](Cc2ccc(C(F)(F)F)cc2)N(C)C(=O)CN(C)C(=O)CN(C)C1=O [Compound 1396] (cyclo(I[Sar][Sar][NMePhe(4-CF3)][Sar][hPhe(3-Cl-4-CF3)]L[NMeAib]L[NMedβ3hAla][NMeL])) | > 500

From patent US20240148821A1, “PHARMACEUTICAL USE OF CYCLIC PEPTIDE COMPOUND” (CHUGAI SEIYAKU KABUSHIKI KAISHA, priority 2021, published 2024)
